ChEMBL document CHEMBL1201862, “PubChem BioAssay data set” (2004)
Active and inactive are the calls of the source.

How the values were obtained:
[1] = biological target: T1, RNA-editing ligase 1, mitochondrial (Trypanosoma brucei brucei, UniProt P86926); assay: inhibition of trypanosome RNA editing ligase – biochemical, fluorescence, Trypanosoma brucei, dose response (AID 1117295); format: functional
T1 sequence (P86926 whole entry): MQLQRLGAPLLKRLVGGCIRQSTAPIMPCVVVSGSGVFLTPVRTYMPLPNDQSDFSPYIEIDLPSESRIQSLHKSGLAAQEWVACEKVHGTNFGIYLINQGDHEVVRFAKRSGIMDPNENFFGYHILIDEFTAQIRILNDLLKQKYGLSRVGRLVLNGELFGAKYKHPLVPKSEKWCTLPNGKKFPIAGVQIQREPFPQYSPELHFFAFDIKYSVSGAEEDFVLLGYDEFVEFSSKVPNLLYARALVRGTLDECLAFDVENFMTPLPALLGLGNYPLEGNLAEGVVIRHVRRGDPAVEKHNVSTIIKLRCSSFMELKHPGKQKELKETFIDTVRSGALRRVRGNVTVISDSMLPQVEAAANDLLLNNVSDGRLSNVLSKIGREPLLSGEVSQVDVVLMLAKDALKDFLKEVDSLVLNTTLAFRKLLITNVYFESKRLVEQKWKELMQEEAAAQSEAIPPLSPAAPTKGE

[2] = biological target: T2, Alkaline phosphatase, tissue-nonspecific isozyme (Homo sapiens, UniProt P05186); assay: potency against alkaline phosphatase TNAP – biochemical, luminescent, dose response, SAR follow-up (AID 1056)
T2 sequence (P05186 whole entry): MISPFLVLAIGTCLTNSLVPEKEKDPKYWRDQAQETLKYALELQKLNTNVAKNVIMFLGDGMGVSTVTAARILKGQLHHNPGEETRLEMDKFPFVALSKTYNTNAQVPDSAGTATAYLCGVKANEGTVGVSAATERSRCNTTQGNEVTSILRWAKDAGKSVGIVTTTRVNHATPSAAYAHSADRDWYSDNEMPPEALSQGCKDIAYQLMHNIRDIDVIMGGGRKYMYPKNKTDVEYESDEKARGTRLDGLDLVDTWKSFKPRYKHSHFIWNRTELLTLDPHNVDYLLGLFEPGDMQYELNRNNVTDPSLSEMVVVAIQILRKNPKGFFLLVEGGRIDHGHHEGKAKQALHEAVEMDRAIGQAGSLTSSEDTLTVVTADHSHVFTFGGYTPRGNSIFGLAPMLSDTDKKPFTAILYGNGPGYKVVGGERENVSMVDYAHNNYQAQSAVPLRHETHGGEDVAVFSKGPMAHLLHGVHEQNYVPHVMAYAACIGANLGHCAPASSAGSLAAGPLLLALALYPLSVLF

[3] = biological target: Albumin (Bos taurus, UniProt P02769); assay: Counterscreen for inhibitors of T-cell receptor (TCR)-CD3 interaction: Fluorescence-based biochemical high throughput dose response assay to identify inhibitors of T-cell receptor (TCR)-CD3 interaction using a TAMRA-labeled BSA probe.; format: functional
Sequence of Albumin (P02769 whole entry): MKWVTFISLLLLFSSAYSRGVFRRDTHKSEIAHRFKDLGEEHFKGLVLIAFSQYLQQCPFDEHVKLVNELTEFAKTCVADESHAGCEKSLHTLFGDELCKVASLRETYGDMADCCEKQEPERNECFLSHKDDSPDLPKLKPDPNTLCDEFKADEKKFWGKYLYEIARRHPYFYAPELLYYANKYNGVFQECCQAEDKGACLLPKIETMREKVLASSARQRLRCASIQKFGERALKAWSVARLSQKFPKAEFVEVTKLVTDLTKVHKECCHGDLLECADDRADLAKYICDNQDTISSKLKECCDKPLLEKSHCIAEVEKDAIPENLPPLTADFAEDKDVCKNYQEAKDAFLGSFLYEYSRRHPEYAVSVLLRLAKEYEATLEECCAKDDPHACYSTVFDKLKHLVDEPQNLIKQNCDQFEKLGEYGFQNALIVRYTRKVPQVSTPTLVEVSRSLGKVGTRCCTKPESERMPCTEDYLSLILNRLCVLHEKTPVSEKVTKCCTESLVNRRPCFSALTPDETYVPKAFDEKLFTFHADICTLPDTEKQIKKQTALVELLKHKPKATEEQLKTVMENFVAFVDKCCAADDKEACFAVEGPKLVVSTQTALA

[4] = Counterscreen for […] of the human trace amine associated receptor 1 (TAAR1): Fluorescence-based cell-based high throughput dose response assay to identify nonselective Ga16 agonists.; format: functional
[5] = biological target: T3, Trace amine-associated receptor 1 (Homo sapiens, UniProt Q96RJ0); assay: Fluorescence-based cell-based high throughput dose response assay to identify antagonists of the human trace amine associated receptor 1 (TAAR1).; format: functional
T3 sequence (Q96RJ0 whole entry): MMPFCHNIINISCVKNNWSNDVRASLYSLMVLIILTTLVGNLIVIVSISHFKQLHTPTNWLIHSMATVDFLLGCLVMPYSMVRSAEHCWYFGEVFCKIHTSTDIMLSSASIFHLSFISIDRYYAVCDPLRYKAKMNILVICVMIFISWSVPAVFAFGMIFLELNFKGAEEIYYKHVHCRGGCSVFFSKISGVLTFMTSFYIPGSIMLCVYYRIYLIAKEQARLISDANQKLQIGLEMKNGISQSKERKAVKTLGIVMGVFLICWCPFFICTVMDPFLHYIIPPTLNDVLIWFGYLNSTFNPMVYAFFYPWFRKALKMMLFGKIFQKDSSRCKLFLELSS

[6] = Counterscreen for antagonists of the human trace amine associated receptor 1 (hTAAR1): Fluorescence-based cell-based high throughput dose response assay to identify nonselective Ga16 antagonists.; format: functional
[7] = biological target: T3, Trace amine-associated receptor 1; assay: Counterscreen for antagonists of the human trace amine associated receptor 1 (hTAAR1): Fluorescence-based cell-based high throughput dose response assay to identify TAAR1 Agonists.; format: functional
[8] = activation of miR-122 Renilla sensor silencing – cell-based, Huh7 psiCHECK-miR122, Renilla luciferase, cherry-picked, dose response (AID 651956); format: functional;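 further: huh7 hepatoma cells stably carrying a psiCHECK-2 miR-122 sensor plasmid; renilla luciferase signal reporting endogenous miR-122 activity after 48 h compound exposure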
[9] = bead-based luminescence quenchers, dual-tagged ARNT – biochemical, AlphaScreen, cherry-pick, artefact control for ARNT-TACC3 interaction inhibitor project, dose response (AID 651705); format: functional;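 further: AlphaScreen bead proximity signal that flags compounds interfering with the detection technology; potency reflects signal decrease which marks the compound as an assay artifact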
[10] = acridine orange displacement from DNA – biochemical, fluorescence polarization, cherry-pick, artefact control for RAD54 inhibitor project, dose response (AID 651673); format: functional
[11] = biological target: T4, DNA repair protein RAD52 homolog (Homo sapiens, UniProt P43351); format: functional, biochemical
T4 sequence (P43351 whole entry): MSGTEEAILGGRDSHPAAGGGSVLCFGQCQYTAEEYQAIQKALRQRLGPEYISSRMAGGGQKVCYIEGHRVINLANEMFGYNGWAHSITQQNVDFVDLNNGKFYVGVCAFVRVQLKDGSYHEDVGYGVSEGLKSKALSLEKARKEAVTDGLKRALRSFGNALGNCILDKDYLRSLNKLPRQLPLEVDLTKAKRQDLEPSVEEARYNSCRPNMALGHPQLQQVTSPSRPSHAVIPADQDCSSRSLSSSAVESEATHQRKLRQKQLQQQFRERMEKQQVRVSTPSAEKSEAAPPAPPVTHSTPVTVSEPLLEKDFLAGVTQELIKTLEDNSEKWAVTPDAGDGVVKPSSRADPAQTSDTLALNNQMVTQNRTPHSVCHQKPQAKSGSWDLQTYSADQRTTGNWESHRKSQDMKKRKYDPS

[12] = biological target: DNA repair and recombination protein RAD54-like (Homo sapiens, UniProt Q92698); assay: RAD54 Holliday junction migration blockers – biochemical, fluorescence, cherry-picked samples, dose series, confirmation (AID 651657); format: functional
Sequence of DNA repair and recombination protein RAD54-like (Q92698 whole entry): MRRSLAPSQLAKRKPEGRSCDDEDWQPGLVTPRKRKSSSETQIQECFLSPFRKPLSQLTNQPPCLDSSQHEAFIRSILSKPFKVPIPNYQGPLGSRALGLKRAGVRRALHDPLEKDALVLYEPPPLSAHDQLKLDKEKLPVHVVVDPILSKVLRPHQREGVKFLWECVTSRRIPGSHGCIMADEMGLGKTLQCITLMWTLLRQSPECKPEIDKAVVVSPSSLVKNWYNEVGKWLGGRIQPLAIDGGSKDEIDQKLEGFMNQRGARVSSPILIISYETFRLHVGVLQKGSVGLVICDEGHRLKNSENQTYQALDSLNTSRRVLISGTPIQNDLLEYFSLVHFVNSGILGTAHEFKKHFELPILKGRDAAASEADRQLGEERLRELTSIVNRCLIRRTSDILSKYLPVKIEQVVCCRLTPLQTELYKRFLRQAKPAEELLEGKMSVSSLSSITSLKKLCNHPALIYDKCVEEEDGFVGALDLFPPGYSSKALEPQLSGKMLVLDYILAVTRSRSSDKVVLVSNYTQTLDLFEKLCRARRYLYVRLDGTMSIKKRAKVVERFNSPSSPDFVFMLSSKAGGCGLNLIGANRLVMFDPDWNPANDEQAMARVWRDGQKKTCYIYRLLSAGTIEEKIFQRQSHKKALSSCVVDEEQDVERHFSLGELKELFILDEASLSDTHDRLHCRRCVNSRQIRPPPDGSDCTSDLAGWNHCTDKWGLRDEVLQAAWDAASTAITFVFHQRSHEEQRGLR

[13] = biological target: T5, Scavenger receptor class B member 1 (Mus musculus, UniProt Q61009); assay: mouse SR-BI DiI-HDL transfer blockers – ldlA[mSR-BI] CHO cells, fluorescence plate reader, dry powder, set 9, dose response (AID 623880); format: functional, cell-based
T5 sequence (Q61009 whole entry): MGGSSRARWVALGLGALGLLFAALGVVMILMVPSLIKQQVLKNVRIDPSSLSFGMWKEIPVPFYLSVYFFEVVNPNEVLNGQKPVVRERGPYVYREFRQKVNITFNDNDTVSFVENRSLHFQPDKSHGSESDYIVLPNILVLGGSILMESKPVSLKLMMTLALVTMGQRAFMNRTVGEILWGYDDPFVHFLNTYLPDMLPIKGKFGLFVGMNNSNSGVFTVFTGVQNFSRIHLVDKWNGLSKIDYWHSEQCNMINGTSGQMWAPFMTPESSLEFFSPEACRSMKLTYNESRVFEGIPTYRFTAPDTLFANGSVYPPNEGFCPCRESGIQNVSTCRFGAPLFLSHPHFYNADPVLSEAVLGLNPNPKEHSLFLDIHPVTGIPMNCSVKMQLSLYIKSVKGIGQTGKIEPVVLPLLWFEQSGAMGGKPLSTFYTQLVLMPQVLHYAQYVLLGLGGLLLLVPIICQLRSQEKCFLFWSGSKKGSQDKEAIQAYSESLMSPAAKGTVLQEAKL

[14] = microbe, parasite or virus in culture; format: functional; settings: Mycobacterium tuberculosis
[15] = biological target: T5, Scavenger receptor class B member 1; assay: blockers of DiI-HDL lipid transfer via SR-BI – cell-based, ldlA[mSR-BI] CHO, DiI fluorescence, dry powder, set 10, dose response (AID 624029); format: functional
[16] = biological target: T6, Protein disulfide-isomerase (Homo sapiens, UniProt P07237); assay: inhibition of PDI-mediated insulin reduction – biochemical, turbidity, absorbance, cherry-picked samples, set 2, dose response (AID 624274); format: functional
T6 sequence (P07237 whole entry): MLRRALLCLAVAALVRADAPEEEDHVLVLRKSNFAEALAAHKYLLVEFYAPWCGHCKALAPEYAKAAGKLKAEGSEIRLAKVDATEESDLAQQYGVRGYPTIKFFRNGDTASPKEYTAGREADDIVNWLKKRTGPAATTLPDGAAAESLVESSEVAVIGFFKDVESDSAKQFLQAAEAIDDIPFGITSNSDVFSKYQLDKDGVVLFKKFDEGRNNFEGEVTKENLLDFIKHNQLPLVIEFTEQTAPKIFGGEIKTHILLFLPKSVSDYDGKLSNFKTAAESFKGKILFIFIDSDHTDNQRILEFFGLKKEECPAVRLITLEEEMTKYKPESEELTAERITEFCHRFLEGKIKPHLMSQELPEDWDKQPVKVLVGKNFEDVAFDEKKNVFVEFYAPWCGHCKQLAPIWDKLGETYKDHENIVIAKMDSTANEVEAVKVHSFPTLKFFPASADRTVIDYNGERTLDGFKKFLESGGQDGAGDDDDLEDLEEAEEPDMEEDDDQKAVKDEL

[17] = biological target: T6, Protein disulfide-isomerase; assay: inhibition of PDI-driven insulin aggregation – biochemical, turbidity, absorbance, cherry-picked samples, dose response (AID 602350); format: functional
[18] = biological target: Mu-type opioid receptor (Homo sapiens, UniProt P35372); format: functional, cell-based;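 further: U2OS cells with beta-arrestin recruitment to OPRM1 by beta-gal complementation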
Sequence of Mu-type opioid receptor (P35372 whole entry): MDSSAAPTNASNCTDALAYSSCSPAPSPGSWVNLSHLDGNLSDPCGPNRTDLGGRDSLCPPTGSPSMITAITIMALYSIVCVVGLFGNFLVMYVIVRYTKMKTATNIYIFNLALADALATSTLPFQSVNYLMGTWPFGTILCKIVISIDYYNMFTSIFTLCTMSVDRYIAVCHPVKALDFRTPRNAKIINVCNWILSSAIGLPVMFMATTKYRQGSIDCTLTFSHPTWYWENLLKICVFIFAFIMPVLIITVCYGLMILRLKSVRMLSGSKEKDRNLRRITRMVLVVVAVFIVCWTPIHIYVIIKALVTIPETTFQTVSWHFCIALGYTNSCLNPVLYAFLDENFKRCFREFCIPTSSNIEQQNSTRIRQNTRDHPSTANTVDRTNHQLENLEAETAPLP

[19] = biological target: 5-hydroxytryptamine receptor 2A (Mus musculus, UniProt P35363); format: functional, cell-based;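 further: CHO-K1 cells with tagged receptor and beta-arrestin; agonist potency measured as compound-induced activation of the receptor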
Sequence of 5-hydroxytryptamine receptor 2A (P35363 whole entry): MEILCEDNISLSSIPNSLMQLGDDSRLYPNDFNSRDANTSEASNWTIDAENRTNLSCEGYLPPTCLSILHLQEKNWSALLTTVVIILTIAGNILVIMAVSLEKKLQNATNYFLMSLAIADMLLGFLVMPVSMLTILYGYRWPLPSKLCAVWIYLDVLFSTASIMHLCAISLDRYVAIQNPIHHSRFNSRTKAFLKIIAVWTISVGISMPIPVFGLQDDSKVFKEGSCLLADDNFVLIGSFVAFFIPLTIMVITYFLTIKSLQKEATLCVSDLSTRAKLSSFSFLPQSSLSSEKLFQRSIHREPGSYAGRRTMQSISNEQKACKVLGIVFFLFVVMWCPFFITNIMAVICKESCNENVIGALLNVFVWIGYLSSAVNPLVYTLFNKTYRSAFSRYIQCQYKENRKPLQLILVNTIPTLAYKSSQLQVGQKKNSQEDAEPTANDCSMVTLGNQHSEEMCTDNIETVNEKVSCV

[20] = biological target: T7, Interleukin-8 (Homo sapiens, UniProt P10145); assay: Dose Response confirmation of uHTS small molecule hits for cystic fibrosis induced NFkb Inhibitors in a PAF-induced IL8 counterscreen.; format: functional; settings: read-out: IC50_Mean
T7 sequence (P10145 whole entry): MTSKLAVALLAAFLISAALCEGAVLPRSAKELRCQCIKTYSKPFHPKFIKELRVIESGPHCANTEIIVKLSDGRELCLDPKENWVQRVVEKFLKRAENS

[21] = reduced cellular PGC1a acetyl-lysine signal – cell-based, cherry-picked samples, dose response (AID 720514); format: functional;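 further: potency may reflect raised or lowered acetylation signal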
[22] = test system: HEK293; assay: EBV LMP1 TES2 canonical NF-kB signalling blockers – cell-based, HEK293, luciferase, cherry-pick, dose response (AID 588343); format: functional; settings: Homo sapiens
[23] = biological target: T7, Interleukin-8; assay: Dose Response confirmation of uHTS small molecule hits for cystic fibrosis induced NFkb Inhibitors in a TNFa-induced IL8 counterscreen.; format: functional; settings: read-out: IC50_Mean
[24] = biological target: Matrix metalloproteinase-14 (Homo sapiens, UniProt P50281); assay: Dose Response confirmation of uHTS hits for a small molecule inhibitors of MT1-MMP activation in a fluorescence assay set 1.; format: functional
[25] = A549 cell cytotoxicity, dose response, cytotoxicity control, plate reader, cherry-pick, antagonist series (AID 743412); format: functional, cell-based
[26] = toxicity toward HepG2 liver cells – cell-based, plate reader, cherry-pick, antagonist series, cytotoxicity control, dose response (AID 743416); format: functional
[27] = blockade of melanocortin 4 receptor signaling – cell-based, plate reader, cherry pick, counter-screen for LGR2 antagonist project, dose response (AID 743444); format: functional;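 further: transfected HEK 293 cells stimulated with alpha-MSH peptide; potency of inhibitors of the alpha-MSH evoked signal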
[28] = blockers of bursicon-stimulated LGR2 cAMP reporter – cell-based, HEK293, CRE-luciferase reporter, cherry pick, set 2, dose response (AID 743343); format: functional;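 further: transfected cells were stimulated with diluted bursicon conditioned medium after compound addition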
[29] = test system: HeLa; assay: viability loss in HeLa cells – cell-based, ATP luminescence, cherry-pick samples, cytotoxicity control, dose response (AID 687004); format: functional; settings: Homo sapiens
[30] = HeLa cell viability loss – 24 h, dry powder, set 2, cytotoxicity control, dose response (AID 651774); format: functional, cell-based
[31] = biological target: T8, Calpain-2 catalytic subunit (Sus scrofa, UniProt P43367); assay: m-calpain protease blockers, concentration series – biochemical, fluorogenic peptide substrate, dose response (AID 1420); format: functional
T8 sequence (P43367 whole entry): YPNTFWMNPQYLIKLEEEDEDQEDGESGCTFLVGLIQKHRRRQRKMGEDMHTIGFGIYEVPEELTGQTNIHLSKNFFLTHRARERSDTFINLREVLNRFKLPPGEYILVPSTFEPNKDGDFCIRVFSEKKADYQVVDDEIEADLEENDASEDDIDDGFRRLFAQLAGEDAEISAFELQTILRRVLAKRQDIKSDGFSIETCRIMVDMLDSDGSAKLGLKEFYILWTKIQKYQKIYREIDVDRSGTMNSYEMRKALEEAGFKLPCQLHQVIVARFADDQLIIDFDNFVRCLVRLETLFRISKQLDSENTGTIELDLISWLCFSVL

[32] = biological target: Mitochondrial peptide methionine sulfoxide reductase (Bos taurus, UniProt P54149); format: functional;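 further: absorbance read-out, biochemical high-throughput dose-response screen for MsrA inhibitors, confirmatory; recombinant bovine MsrA coupled to E. coli TrxB with NADPH and selenocystamine; potency is for inhibitors of MsrA activity on DMSO substrate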
Sequence of Mitochondrial peptide methionine sulfoxide reductase (P54149 whole entry): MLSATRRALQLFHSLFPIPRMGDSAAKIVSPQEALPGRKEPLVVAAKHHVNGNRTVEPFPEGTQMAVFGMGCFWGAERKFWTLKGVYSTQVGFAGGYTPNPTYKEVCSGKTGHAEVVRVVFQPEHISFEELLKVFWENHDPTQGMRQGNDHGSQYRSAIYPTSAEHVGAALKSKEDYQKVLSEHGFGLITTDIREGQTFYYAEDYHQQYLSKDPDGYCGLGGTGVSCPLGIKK

[33] = biological target: ADP-ribosylation factor GTPase-activating protein 1 (Rattus norvegicus, UniProt Q62848); assay: Fluorescence polarization-based biochemical high throughput dose response screening assay to identify inhibitors of ADP-ribosylation factor GTPase activating protein 1 (ARFGAP1).; format: functional
Sequence of ADP-ribosylation factor GTPase-activating protein 1 (Q62848 whole entry, the tested form may be a part): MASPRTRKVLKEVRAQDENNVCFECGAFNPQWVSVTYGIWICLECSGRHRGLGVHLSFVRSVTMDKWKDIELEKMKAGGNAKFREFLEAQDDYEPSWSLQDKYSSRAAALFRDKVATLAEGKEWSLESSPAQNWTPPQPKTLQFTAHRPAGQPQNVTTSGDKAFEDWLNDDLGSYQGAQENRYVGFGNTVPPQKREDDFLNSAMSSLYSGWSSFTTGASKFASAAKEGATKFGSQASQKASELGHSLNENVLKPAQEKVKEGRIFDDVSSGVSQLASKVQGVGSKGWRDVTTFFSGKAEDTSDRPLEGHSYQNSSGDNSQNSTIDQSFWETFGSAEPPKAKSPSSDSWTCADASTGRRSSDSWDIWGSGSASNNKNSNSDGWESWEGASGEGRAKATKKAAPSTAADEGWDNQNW

[34] = biological target: Arf-GAP with SH3 domain, ANK repeat and PH domain-containing protein 1 (Homo sapiens, UniProt Q9ULH1); format: functional;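 further: biochemical fluorescence polarization dose–response screen measuring inhibition of ASAP1; ASAP1 GAP domain stimulating GTP hydrolysis by truncated human ARF1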
Sequence of Arf-GAP with SH3 domain, ANK repeat and PH domain-containing protein 1 (Q9ULH1 whole entry, the tested form may be a part): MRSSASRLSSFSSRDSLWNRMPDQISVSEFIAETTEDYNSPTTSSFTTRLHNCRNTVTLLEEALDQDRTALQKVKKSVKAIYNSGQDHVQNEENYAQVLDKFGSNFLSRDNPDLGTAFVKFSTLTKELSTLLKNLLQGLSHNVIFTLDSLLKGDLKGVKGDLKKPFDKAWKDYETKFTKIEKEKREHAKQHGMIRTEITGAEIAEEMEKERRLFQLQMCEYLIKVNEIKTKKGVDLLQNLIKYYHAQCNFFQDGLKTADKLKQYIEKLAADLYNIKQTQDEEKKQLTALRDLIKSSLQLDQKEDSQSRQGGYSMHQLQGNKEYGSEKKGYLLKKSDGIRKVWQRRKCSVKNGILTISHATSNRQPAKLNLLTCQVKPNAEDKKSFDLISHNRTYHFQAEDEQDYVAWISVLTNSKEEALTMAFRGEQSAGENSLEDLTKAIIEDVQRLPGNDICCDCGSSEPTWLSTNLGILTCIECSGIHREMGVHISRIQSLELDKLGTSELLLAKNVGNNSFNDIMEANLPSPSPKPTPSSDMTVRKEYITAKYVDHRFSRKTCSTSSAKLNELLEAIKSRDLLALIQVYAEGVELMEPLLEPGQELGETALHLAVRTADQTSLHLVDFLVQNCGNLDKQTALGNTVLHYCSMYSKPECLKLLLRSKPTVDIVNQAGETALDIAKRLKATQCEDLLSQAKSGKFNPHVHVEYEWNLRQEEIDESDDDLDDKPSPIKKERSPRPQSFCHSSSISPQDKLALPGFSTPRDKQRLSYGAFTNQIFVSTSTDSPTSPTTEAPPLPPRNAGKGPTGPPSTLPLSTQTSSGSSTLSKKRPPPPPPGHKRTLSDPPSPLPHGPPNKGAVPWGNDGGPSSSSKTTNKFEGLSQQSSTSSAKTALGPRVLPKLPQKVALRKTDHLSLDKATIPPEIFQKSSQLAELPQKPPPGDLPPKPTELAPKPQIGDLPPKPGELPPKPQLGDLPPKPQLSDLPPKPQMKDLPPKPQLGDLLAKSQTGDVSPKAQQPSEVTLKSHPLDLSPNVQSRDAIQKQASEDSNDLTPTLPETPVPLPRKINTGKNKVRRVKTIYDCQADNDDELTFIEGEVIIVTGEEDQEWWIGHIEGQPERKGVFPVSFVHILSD

Cc1nc2ccccc2n1CC(=O)c1ccc(O)c(O)c1
IC50 [1]: > 96.6 µM (inactive)
IC50 [2]: 20.2 µM (active)
IC50 [3]: > 94 µM (inactive)

COC(=O)c1oc2c(c1C)C1(CCC2)SCCS1
EC50 [4]: > 29.9 µM (inactive)
IC50 [5]: 1.09 µM (active)
IC50 [6]: > 29.9 µM (inactive)
EC50 [7]: > 29.9 µM (inactive)

Cc1cc(C(C)(C)C)cc(S(=O)(=O)NCCc2ccncc2)c1C
AC50 [8]: 0.598 µM (active)

COCCOC(=O)c1c(N)n(Cc2ccco2)c2nc3ccccc3nc12
AC50 [9]: 130 µM (active)

CCOC(=O)c1cnc2c(ccc3ccccc32)c1NCCN(C)C
AC50 [10]: 55.9 µM (active)
AC50 [11]: 6.71 µM (active)
AC50 [12]: 9.73 µM (active)

CCOc1cc2c3c(c1)C1(C(=O)N3C(C)(C)CC2C)C(C#N)=C(N)N2C(=C1C#N)Nc1ccccc12 (centres undefined)
AC50 [13]: 10 µM (active)
CC50 [14]: > 40 µM (active)
AC50 [15]: 2.23 µM (active)

O=C(Nc1ccccc1N1CCCC1)c1cc(Cl)ccc1Cl
AC50 [16]: 0.009 µM (active)
AC50 [17]: < 0.009 µM (active)

CCC(=O)c1ccc(OCC(O)CN2CCN(c3ccccn3)CC2)cc1 (centres undefined)
EC50 [18]: 92.5 µM (inactive)
EC50 [19]: 0.306 µM (active)

CCCN(CC)c1[nH]cnc2nncc1-2
IC50 [20]: 9.12 µM (active)
AC50 [21]: 3.26 µM (active)
AC50 [22]: 9.96 µM (active)
IC50 [23]: 42.3 µM (inactive)

Cc1ccc(S(=O)(=O)/N=C2\C=C(NS(=O)(=O)c3ccccc3)C(=O)c3ccccc32)c(C)c1
IC50 [24]: 14 µM (active)

Cc1ccc2nc(-c3ccccc3)nn2c1
AC50 [25]: > 52 µM (inactive)
AC50 [26]: > 52 µM (inactive)
AC50 [27]: 3.56 µM (active)
AC50 [28]: 2.48 µM (active)

C[C@H](CO)N1C[C@H](C)[C@H](CN(C)Cc2ccccc2)Oc2cc(C#Cc3ccccn3)ccc2S1(=O)=O
AC50 [29]: > 52 µM (inactive)

c1ccc(-c2ccc(CCNC3CCCC3)cc2)cc1
AC50 [30]: > 70 µM (inactive)

CCOC(=O)C/C(C)=N\Nc1ccc([N+](=O)[O-])cc1[N+](=O)[O-]
IC50 [31]: 23 µM (not active)
IC50 [32]: 155 µM (inactive)

COc1cc(/C=N\NC(=O)c2ccc(C)nc2)ccc1OC(=O)c1ccc2c(c1)OCO2
IC50 [33]: 21 µM (inactive)
IC50 [34]: 24.8 µM (inactive)
